# Legend:
# PC-3 cells = assay: Cellular efflux of internalized radioactivity from PC-3 cells; assay type: cell-based
# Method: For in vitro experiments, PC-3 cells were cultured in DMEM/F12 and seeded in 6-well plates at a density of 10^6 cells per well 18 h before carrying out the experiments and incubated overnight with complete medium.
# Three minutes before the end of the incubation time, internalization was stopped by removing medium and washing cells with ice-cold PBS. The membrane-bound fraction was removed by rinsing cells with 2 mL acetate buffer (pH = 5; 20 mM) for 2 min and cells were then rinsed ice-cold PBS. Next, 2 mL of complete medium was then added to each well, and PC-3 cells were incubated at 37 °C for 5, 15, 30 and 45 min. At each time point, efflux was stopped by removing medium and cells were rinsed twice with ice-cold PBS. Finally, the cells were treated with 1M NaOH and the radioactivity was measured using a gamma counter.
# PC-3 = conditions: other kit formulation without scavenger and bulking agent; cited from earlier work
# From the text: Another kit formulation of RM2 has been developed but without a scavenger and a bulking agent for lyophilization. […] Therefore, our innovative formulation provides longer stability at higher temperature and higher uptake in GRP-R-expressing PC-3 cells.
# [1] = Stability of radiolabeled kit in vehicle (radiochemical purity over time); assay type: physicochemical; conditions: final formulation (acetate buffer, PBS, 0.9% NaCl)
# Method: For process validation, the [^68Ga]Ga-RM2 kits were subjected to full quality control. […] Molar activity was calculated after linear regression of the calibration curve with [^natGa]Ga-RM2 (Life Molecular Imaging). The pH was determined using a pH-meter. Volumetric activity was determined by dividing activity obtained by the final volume. The [^68Ga]Ga-RM2 was also subjected to endotoxin testing (Charles Rivers), sterility testing and radionuclidic purity and filter integrity tests. Results were then compared to the production capacity provided by the module route currently running in our NCT03604757 and NCT03606837 studies.
# After optimization, ^68Ga radiolabeling of the RM2 kits was carried out in three consecutive batches, and they all complied with the requirements of the monograph of the European Pharmacopoeia (as described for [^68Ga]Ga-edotreotide) (Figure 4 and Table 1). The evolution of the radiochemical purity over time was also checked.
# [2] = Lipophilicity, water-octanol partition/distribution coefficient method; assay type: physicochemical; conditions: 1-octanol/phosphate buffered saline; shake-flask 1-octanol/PBS pH 7.4 (500 µL each), 3.7 MBq, stirred 5 min at room temperature, centrifuged, gamma counter, decay-corrected; three experiments in triplicate, mean ± SD
# Method: The lipophilicity of the [^68Ga]Ga-RM2 was assessed by the water-octanol partition/distribution coefficient method. In a centrifuge tube 500 µL of 1-octanol was added to 500 µL of phosphate buffered saline (pH 7.4) containing the radiolabeled peptide (3.7 MBq; ≈10 µL). After equilibrium, the solution was vigorously stirred for 5 min at room temperature and subsequently centrifuged (4000 rpm, 3 min) to yield two immiscible layers. Aliquots of 100 µL were taken from each layer and the radioactivity in the samples was determined by a gamma counter (Gamma Wizard2 Counter 2480; Perkin Elmer, Villebon sur Yvette, France; acquisition time of one minute, energy window centered on the peak of 511 keV). The Log D7.4 was determined by the Log ratio (cpm (counts per minute) organic phase/cpm aqueous phase). The cpm values were decay-corrected. Experiments were performed three times in triplicates.
# GRP-R = target: T1, GRP-R (Homo sapiens, UniProt P30550); assay: Intracellular calcium mobilization assay in PC-3 cells; assay type: cell-based; conditions: fluo-8AM, 10^-11 M to 10^-5 M, room temperature, pH 7.4
# T1 construct: higher uptake in GRP-R-expressing PC-3 cells; endogenous in cells; host or cells: PC-3 cells
# T1 sequence (P30550 whole entry): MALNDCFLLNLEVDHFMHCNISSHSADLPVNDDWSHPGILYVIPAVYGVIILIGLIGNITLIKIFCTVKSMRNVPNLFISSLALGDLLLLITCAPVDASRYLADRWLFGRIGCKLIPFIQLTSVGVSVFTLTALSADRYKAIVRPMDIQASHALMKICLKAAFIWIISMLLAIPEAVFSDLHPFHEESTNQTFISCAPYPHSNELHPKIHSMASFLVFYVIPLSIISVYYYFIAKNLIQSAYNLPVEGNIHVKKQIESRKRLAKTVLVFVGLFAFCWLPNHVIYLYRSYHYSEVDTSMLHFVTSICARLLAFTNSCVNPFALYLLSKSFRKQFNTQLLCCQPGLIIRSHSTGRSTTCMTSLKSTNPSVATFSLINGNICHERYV
# Method: For calcium imaging assays, PC-3 cells were cultured as previously described. The day before the experimentation, cells were grown on 15 mm Thermanox® glass slides (Thermofischer, Waltham, MA, USA,) in 6-wells plates at the density of 5.10^5 cells in 500 µL culture medium. Glass slides were individually loaded for 30 min in dark into 500 µL loading solution containing 10 µL fluo-8AM, 10 µL pluronic acid, 50 µL probenecid and 430 µL DMEM/F12 medium. […] A 10-min delay was applied to remove extracellular fluo-8AM and to enable fluo-8AM intracellular hydrolysis. Growing concentrations (10^−11 M to 10^−5 M) of [^natGa]Ga-RM2 were added via a rapid perfusion system.
Stability in vehicle (radiochemical purity over time) [1],logD [2],Compound,"Efflux of the internalized activity (PC-3 cells; 30 min internalization at 37 °C, acid wash, then 5 min at 37 °C in complete medium) [%]",Efflux (%) (PC-3 cells; 45 min post-internalization at 37 °C),Specific uptake in PC-3 (% of cell-associated radioactivity) (PC-3) [%],Intracellular calcium mobilization (ΔF/F) (GRP-R)
stable in vehicle up to 3 h,-2.54 ± 0.04,"CC(C)C[C@H](NC(=O)C[C@H](O)[C@H](CC(C)C)NC(=O)[C@H](Cc1c[nH]cn1)NC(=O)CNC(=O)[C@@H](NC(=O)[C@H](C)NC(=O)[C@H](Cc1c[nH]c2ccccc12)NC(=O)[C@H](CCC(N)=O)NC(=O)[C@@H](Cc1ccccc1)NC(=O)CN1CCC(NC(=O)CN2CCN(CC(=O)O)CCN(CC(=O)O)CCN(CC(=O)O)CC2)CC1)C(C)C)C(N)=O [[^68Ga]Ga-RM2, metal not drawn]",64.3 ± 6.5,70.8 ± 11.1,5,–
–,–,bombesin,–,–,–,effectively induced calcium mobilization in a dose-dependent manner

# — publication PMC8398231 (Pharmaceutics, 2021)
